Laboratory results taken from US8030341B2, “Dmt-derivative compounds and related compositions and methods of use” (priority 2005, dated 2011).
Read-outs that look alike come from different tables or passages of the source. Non-standard residues stand in square brackets, D forms with d. Residues, ends and D or L forms follow the SMILES beside them. Dmt = Cc1cc(O)cc(C)c1C[C@H](N)C(=O)O; Tic = O=C(O)[C@@H]1Cc2ccccc2CN1

What was measured:
[1] = target: T1, δ-opioid receptor (Rattus norvegicus, UniProt P33533); experiment: opioid receptor binding competition assay, rat brain P2 synaptosomal membranes (δ); settings: for Ki(μ)/Ki(δ): Table 1, selectivity ratio
T1 construct: from tissue; host or cells: rat brain P2 synaptosomal membranes (Sprague-Dawley)
T1 sequence (P33533 whole entry): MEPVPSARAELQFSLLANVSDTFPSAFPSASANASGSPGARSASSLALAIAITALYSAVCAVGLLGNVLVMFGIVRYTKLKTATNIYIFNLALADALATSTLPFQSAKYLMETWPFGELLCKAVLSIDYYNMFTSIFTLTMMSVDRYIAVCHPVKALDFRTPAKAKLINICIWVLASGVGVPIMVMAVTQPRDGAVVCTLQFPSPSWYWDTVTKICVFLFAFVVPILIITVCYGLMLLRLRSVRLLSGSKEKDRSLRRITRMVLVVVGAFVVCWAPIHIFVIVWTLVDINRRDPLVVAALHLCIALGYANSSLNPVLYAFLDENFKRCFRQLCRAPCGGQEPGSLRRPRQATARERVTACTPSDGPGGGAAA
Procedure: (§1) Synaptosomes were preincubated to remove endogenous opioids, washed in excess ice-cold buffer containing protease inhibitor and stored in a glycerol-containing buffer with protease inhibitor at −80° C. as described in Lazarus et al., J. Med. Chem. 34:1350-55 (1991). […] After incubation, the radiolabeled membranes were rapidly filtered on Whatman GF/C glass fiber filters presoaked in 0.1% polyethylenimine in order to optimize the signal-to-noise ratio, washed with ice-cold BSA buffer, and dried at 75-80° C. Radioactivity was determined using EcoLume (ICN, Costa Mesa, Calif.). All compounds were analyzed in duplicate using 5-8 peptide dosages and several synaptosomal preparations in independent repetitions to ensure statistical significance. The affinity constants (Ki) were calculated according to Cheng and Prusoff (Cheng et al., Biochem. Pharmacol., 22: 3099-3108 ([…])).

[2] = target: T2, μ-opioid receptor (Cavia porcellus, UniProt P97266); experiment: guinea pig ileum (GPI) bioassay; format: cell-based
T2 sequence (P97266 whole entry, looked up): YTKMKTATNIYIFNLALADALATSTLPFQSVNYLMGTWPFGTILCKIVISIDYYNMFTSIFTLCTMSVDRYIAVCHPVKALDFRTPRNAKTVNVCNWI
Procedure: The myenteric plexus longitudinal muscle preparations (2-3 cm segments) from the small intestine of male Hartley strain guinea pigs (GP1) measured μ-opioid receptor agonism and a single mouse vas deferens (MVD) was used to determine δ-opioid receptor agonism as described in Sasaki et al. Bioorg. […] The isolated tissues were suspended in organ baths containing balanced salt solutions in a physiological buffer, pH 7.5. Agonists were tested for the inhibition of electrically evoked contraction and expressed as IC50 (nM) obtained from the dose-response curves.

[3] = target: T3, δ-opioid receptor (Mus musculus, UniProt P32300); experiment: mouse vas deferens (MVD) bioassay; format: cell-based; settings: for MVD Antagonist pA2 (nM), value in parentheses (Ke): versus deltorphin II, antilog of pA2
T3 construct: from tissue; host or cells: isolated mouse vas deferens
T3 sequence (P32300 whole entry): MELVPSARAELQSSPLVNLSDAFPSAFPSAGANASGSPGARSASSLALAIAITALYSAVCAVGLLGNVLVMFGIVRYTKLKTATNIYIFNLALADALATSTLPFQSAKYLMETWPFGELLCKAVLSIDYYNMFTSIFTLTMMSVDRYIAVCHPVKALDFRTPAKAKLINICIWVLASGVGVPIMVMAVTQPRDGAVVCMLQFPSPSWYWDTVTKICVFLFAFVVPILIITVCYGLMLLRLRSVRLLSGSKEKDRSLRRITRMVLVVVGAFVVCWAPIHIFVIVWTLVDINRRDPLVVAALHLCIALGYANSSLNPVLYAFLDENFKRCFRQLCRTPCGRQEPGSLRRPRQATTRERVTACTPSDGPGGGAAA
From the text: Bioorg. Med. Chem., 11: 675-678 (2003). The isolated tissues were suspended in organ baths containing balanced salt solutions in a physiological buffer, pH 7.5. […]

[4] = target: T4, μ-opioid receptor (Rattus norvegicus, UniProt P33535); experiment: opioid receptor binding competition assay, rat brain P2 synaptosomal membranes (μ); settings: for Ki(δ)/Ki(μ): selectivity ratio
T4 construct: from tissue; host or cells: rat brain P2 synaptosomal membranes (Sprague-Dawley)
T4 sequence (P33535 whole entry): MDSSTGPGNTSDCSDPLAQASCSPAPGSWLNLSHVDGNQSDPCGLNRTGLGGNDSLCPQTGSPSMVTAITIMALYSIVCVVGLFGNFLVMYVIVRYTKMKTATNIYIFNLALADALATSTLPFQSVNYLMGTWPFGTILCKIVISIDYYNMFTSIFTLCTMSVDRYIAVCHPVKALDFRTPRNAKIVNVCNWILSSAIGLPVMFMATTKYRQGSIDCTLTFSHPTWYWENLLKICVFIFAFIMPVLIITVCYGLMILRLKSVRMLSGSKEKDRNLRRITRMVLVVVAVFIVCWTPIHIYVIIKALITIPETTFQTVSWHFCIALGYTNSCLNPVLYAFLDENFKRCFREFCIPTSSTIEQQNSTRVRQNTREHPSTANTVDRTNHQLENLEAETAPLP
Procedure: as §1

[5] = target: T1, δ-opioid receptor; settings: Table 3; reference rows marked e, f, g (no SE, no n); cited from earlier work
[6] = target: T4, μ-opioid receptor; settings: Table 3, reference rows marked e, f, cited from earlier work; for Ki(δ)/Ki(μ): g
[7] = target: T3, δ-opioid receptor; settings: Table 2; reference value marked 6a; cited from earlier work
[8] = target: T2, μ-opioid receptor; settings: Table 2; reference value marked 6a; cited from earlier work

Cc1cc(O)cc(C)c1CC(N)C(=O)N1Cc2ccccc2CC1C(=O)NCCCCNC(=O)C1Cc2ccccc2CN1C(=O)C(N)Cc1c(C)cc(O)cc1C (stereo not drawn) [Compound 18, 1,4-Bis(Dmt-Tic-amino)butane]
Ki [1]: 0.124 ± 0.016 nM | Ki(μ)/Ki(δ) [1]: 46 | IC50 [2]: > 10000 nM | GPI Antagonist pA2 (nM), value in parentheses (Ke) ([2]; Table 2, versus endomorphin-2, antilog of pA2): 102 nM | IC50 [3]: > 10000 nM | MVD Antagonist pA2 (nM), value in parentheses (Ke) ([3]; Table 2): 0.0309 nM | Ki [4]: 5.72 ± 0.22 nM

Cc1cc(O)cc(C)c1CC(N)C(=O)N1Cc2ccccc2CC1C(=O)NCCCCCCNC(=O)C1Cc2ccccc2CN1C(=O)C(N)Cc1c(C)cc(O)cc1C (stereo not drawn) [Compound 19, 1,6-Bis(Dmt-Tic-amino)hexane]
Ki [1]: 0.129 ± 0.03 nM | IC50 [3]: > 10000 nM | MVD Antagonist pA2 (nM), value in parentheses (Ke) ([3]; Table 2): 0.024 nM | Ki [4]: 1.79 ± 0.08 nM

Cc1cc(O)cc(C)c1CC(N)C(=O)N1Cc2ccccc2CC1C(=O)NCCCCCCCCCCNC(=O)C1Cc2ccccc2CN1C(=O)C(N)Cc1c(C)cc(O)cc1C (stereo not shown) [Compound 20, 1,10-Bis(Drat-Tic-amino)decane]
Ki [1]: 1.53 ± 0.16 nM | Ki(μ)/Ki(δ) [1]: 3 | IC50 [2]: 5420 ± 1840 nM | IC50 [3]: > 10000 nM | MVD Antagonist pA2 (nM), value in parentheses (Ke) ([3]; Table 2): 0.0107 nM | Ki [4]: 4.86 ± 0.41 nM

Cc1cc(O)cc(C)c1CC(C(=O)N1Cc2ccccc2CC1C(=O)NCCCCCCNC(=O)C1Cc2ccccc2CN1C(=O)C(Cc1c(C)cc(O)cc1C)N(C)C)N(C)C (stereo not drawn) [Compound 21, 1,6-Bis(N,N-Dimethyl-Dmt-Tic-NH)-hexane]
Ki [1]: 0.06 ± 0.01 nM | Ki(μ)/Ki(δ) [1]: 37 | IC50 [2]: > 10000 nM | Kb [2]: 4 nM | IC50 [3]: > 10000 nM | MVD Antagonist pA2 (nM), value in parentheses (Ke) ([3]; Table 2): 0.0052 nM | Ki [4]: 2.21 ± 0.08 nM

C=CCN(CC=C)[C@@H](Cc1ccc(O)cc1)C(=O)N1CCC[C@H]1C(=O)N[C@@H](Cc1ccccc1)C(=O)N[C@@H](Cc1ccccc1)C(N)=O [Compound 28, [N,N-Diallyl-Tyr^1]EM-2]
Ki [1]: 5760 ± 1220 nM | Ki [4]: 1050 ± 175 nM | Ki(δ)/Ki(μ) ([4]; Table 3): 6

C=CCN[C@@H](Cc1ccc(O)cc1)C(=O)N1CCC[C@H]1C(=O)N[C@@H](Cc1ccccc1)C(=O)N[C@@H](Cc1ccccc1)C(N)=O [Compound 29, [N-allyl]EM-2]
Ki ([1]; Table 3, versus [3H]DPDPE, rat brain synaptosomes, read-out: Ki(δ)): 7360 ± 259 nM | Ki(δ)/Ki(μ) ([4]; Table 3): 57 | Ki ([4]; Table 3, versus [3H]DAMGO, rat brain synaptosomes, read-out: Ki(μ)): 130 ± 9.27 nM

C=CCN(CC=C)[C@@H](Cc1c(C)cc(O)cc1C)C(=O)N1CCC[C@H]1C(=O)N[C@@H](Cc1ccccc1)C(=O)N[C@@H](Cc1ccccc1)C(N)=O [Compound 30, [N,N-(allyl)2Dmt^1]EM-2]
GPI pA2 ([2]; Table 4, μ antagonism): None | Ki(δ)/Ki(μ) ([4]; Table 3): 108

C=CCN[C@@H](Cc1c(C)cc(O)cc1C)C(=O)NCCCc1[nH]c(=O)c(CCCNC(=O)[C@H](Cc2c(C)cc(O)cc2C)NCC=C)nc1C [Compound 32, Bis-[(N-allyl)Dmt-NH-propyl]pyrazinone]
Ki [1]: 51.5 ± 4.1 nM | Kb [2]: 67.6 nM | IC50 ([2]; Table 4, agonism, read-out: GPI): > 10000 nM | pA2(μ)/pA2(δ) ([2]; Table 4, selectivity of antagonism): 4 | Kb [3]: 269 nM | IC50 ([3]; Table 4, agonism, read-out: MVD): > 10000 nM | Ki [4]: 12.4 ± 1.1 nM | Ki(δ)/Ki(μ) ([4]; Table 3): 4

Cc1cc(O)cc(C)c1CC(N)C(=O)NCCCc1cnc(CCCNC(=O)C(N)Cc2c(C)cc(O)cc2C)c(=O)[nH]1 (stereo not shown) [Compound 37, 3,6-Bis-[Dmt-NH-propyl]pyrazinone]
Ki [5]: 13.2 nM | Ki ([6]; g (no SE, no n)): 0.042 nM | Ki(δ)/Ki(μ) [6]: 307

Cc1cc(O)cc(C)c1C[C@H](N)C(=O)N1Cc2ccccc2C[C@H]1C(=O)O [H-Dmt-Tic-OH, reference compound] (H-[Dmt]-[Tic]-OH)
MVD agonist IC50, nM ([3]; Table 2, inhibition of electrically evoked contraction): none

Cc1cc(O)cc(C)c1C[C@H](N)C(=O)NCCCCCCNC(=O)[C@@H](N)Cc1c(C)cc(O)cc1C [H-Dmt[NH—(CH2)6—NH]Dmt-H]
Ki(δ)/Ki(μ) [6]: 870

Oc1ccc2c3c1O[C@H]1c4[nH]c5ccccc5c4C[C@@]4(O)[C@@H](C2)N(CC2CC2)CC[C@]314 [Naltrindole]
MVD Antagonist pA2 [7]: 9.2 | MVD Antagonist pA2 (nM), value in parentheses (Ke) [7]: 0.631 nM | GPI Antagonist pA2 [8]: 7.3 | GPI Antagonist pA2 (nM), value in parentheses (Ke) [8]: 50 nM
